According to patent US9855320B2, “Angiogenin for treatment of glaucoma” (CHUNG-ANG UNIVERSITY INDUSTRY-ACADEMIC COOPERATION …, priority 2011, dated 2018):

Key:
angiogenin = test: Angiogenin concentration change in human tear after Latanoprost instillation (ELISA array); assay type: in vivo
Procedure: Angiogenin concentration change in tears due to long-, short-term instillation of […] Latanoprost (Xalatan; Pfizer Inc., New York, N.Y., USA) was assayed by using ELISA kit (Custom Cytokine Human Antibody Array, RayBiotech). Short-term tear component change assay was performed as follows: 12 people, that is, 24 eyes were instilled with […] Latanoprost and then, angiogenin concentration in tear was qualitatively assayed before instillation and 6 hours after instillation. Long-term tear component change assay was performed as follows: 10 people, that is, 20 eyes, who were newly diagnosed with glaucoma were instilled with […] Latanoprost instillation for two months once a day, and then, angiogenin concentration in tear was analyzed before and after instillation. […] After washing, the result was reacted in a detection buffer solution provided by the manufacturer for 2 minutes, and then, the membrane was exposed to an X-ray film for 40 seconds, and an image thereof was obtained by using Quantity one software(Bio-Rad Lab., Hercules, Calif., USA), and chemiluminescent assay was performed thereon for qualitativeness.

normal white rat = test: Intraocular pressure change due to instillation in normal white rats (day-time and night-time); assay type: in vivo
Procedure: (§1) White rats were grouped as a physiological saline solution instillation group, an angiogenin (recombinant human angiogenin, R&D systems, USA) 50 μg/ml instillation group, an angiogenin fragment (angiogenin 108-122, SEQ ID NO: 1, BACHEM, USA) instillation group, and a latanoprost 50 μg/ml instillation group, and each group consisted of 6 rats, that is, 12 eyes. Instillation test was repeatedly performed on normal rats and glaucoma model rats. Ophthalmic agent was administered at 8 AM and 8 PM in an amount of 4 μl to compare day-time effects and night-time effects, and 1, 3, 6, 9, 12, and 24 hours after the instillation, intraocular pressure was measured.

[1] = tested on: nitric oxide (NO) concentration in aqueous humor; test: NO concentration in aqueous humor after instillation (Griess assay); assay type: in vivo, rat; conditions: 50 μg/ml, rank among instillation groups
Procedure: Normal rat models were divided into 4 groups, each group consisting of 6 rats, that is, 12 eyes, and at 8 AM and 8 PM, each group was instilled with angiogenin 50 μg/ml, angiogenin fragment 50 μg/ml, and latanoprost 50 μg/ml, and 1, 3, and 6 hours after instillation, 15 to 20 μl of aqueous humor was extracted from two rats, that is, 4 eyes for each group. For the extraction of aqueous humor, first, rats were anesthetized, and then, corneal dissection was performed in a direction from at 9 o'clock outside each eye toward microkeratome, and then, a capillary tube was brought into contact through a dissection wound to absorb aqueous humor, which was then moved to an eppendroff tube and frozen-preserved at a temperature of −70 degrees. Thereafter, nitric oxide (NO) concentration in aqueous humor was measured by Griess assay (nitric oxide colorimetric assay kit, Biovision, USA). The aqueous humor was diluted 10 times and then mixed with the same amount of griess solution and reacted together for 10 minutes. The reaction product was moved onto a well plate and then, absorbance of nitrate, which is a NO formation reactant, was measured by using spectrophotometer at a wavelength of 540 nm and compared with a reference value to quantify the nitrate.

glaucoma white rats = test: Intraocular pressure change due to instillation in glaucoma white rats (day-time and night-time); assay type: in vivo, rat; conditions: day-time test and night-time test
Procedure: Male white rats were used to prepare an episcleral venous ablation glaucoma model. The rat was anesthetized and a limbus periphery was divided into four portions, each of which was then subjected to 2 mm dissection at an interval of 90 degrees, and then, two radial conjunctival excisions were performed on upper dissection periphery. […] Episcleral vein is distinguishable because it is located […] than extra ocular muscle, has relatively low fluidity and a relatively large diameter, contains darker blood in vessel, and is connected to peripheral venous plexus. After surgical isolation of vein, the vein was lifted up by using 3 mm-width wooden spatula to be spaced apart from the peripheral tissue, and then, was subjected to electric ablation while being careful for the peripheral tissue not to have any thermal injury or any mechanical injury due to the contact. After the operation, a chloramphenical ophthalmic agent was administered thereto. Intraocular pressure was consecutively measured three or more times by using Tonopen (Solan, Fla., USA), and only reliable intraocular pressure values within 5% or less were recorded. Only used were rats that had higher intraocular pressure than that before the operation by 5 mmHg or more when measured on the first day, the third day, one week and two weeks before and after operation.
Also, steroid-induced glaucoma model was prepared as follows: 1% prednisolone was instilled twice a day in an amount of 4 μl for 30 days, and only rats that had higher intraocular pressure by 5 mmHg or more before operation were used.
as §1

Compound	expression of angiogenin in tear (angiogenin; human, short-term, 6 hours after instillation of 0.0005% Latanoprost, before instillation 42.2±9.1%) [%]	long-term angiogenin concentration in tear (angiogenin; newly diagnosed glaucoma patients, after two months of instillation once a day, 0.0005% Latanoprost, before instillation 60.5±10.8%) [%]	time after instillation up to which significant intraocular pressure reduction was maintained (normal white rat; day-time instillation)	intraocular pressure reduction (normal white rat; day-time instillation, 50 μg/ml, 3 hours after the instillation) [mmHg]	NO concentration increase in aqueous humor ([1]; 3 hours after instillation)	average intraocular pressure reduction (normal white rat; day-time instillation, one hour after instillation) [mmHg]	time after instillation up to which significant intraocular pressure reduction was maintained (normal white rat; night-time instillation)	intraocular pressure reduction (normal white rat; night-time instillation, 1 hour after the instillation) [mmHg]	NO concentration increase in aqueous humor ([1]; 1 hour after the initial instillation, day-time and night-time test)	course of intraocular pressure reduction effects after the first hour (in words) (glaucoma white rats; later than one hour after instillation)	intraocular pressure reduction effects (in words) (glaucoma white rats; one hour after instillation)
CC(C)OC(=O)CCC/C=C\C[C@@H]1[C@@H](CC[C@@H](O)CCc2ccccc2)[C@H](O)C[C@@H]1O [latanoprost, reference compound]	62.5±10.2	81.2±11.5	up to 12 hours	−2.8±0.4	greatest NO concentration increase	–	–	–	–	–	–
angiogenin fragment: C-terminal fragment of angiogenin, angiogenin 108-122, SEQ ID NO: 1 (BACHEM) (ENGLPVHLDQSIFRR; listed as Homo sapiens)	–	–	up to 6 hours	–	–	−2.9±0.4	up to 12 hours	−3.4±0.6	ranked the second	rapidly diminished at the highest speed from among all of the groups	excellent intraocular pressure reduction effects
